Data as given in patent US10654832B2, “3-(benzoimidazol-2-YL)-indazole inhibitors of the Wnt signaling pathway and therapeutic uses thereof” (Samumed, LLC, priority 2013, dated 2020).

test system: Wnt activity (wnt-responsive SP5 promoter luciferase reporter in SW480 cells); assay: Wnt activity reporter assay (SP5 promoter-firefly luciferase in SW480 cells); assay type: cell-based; details: Homo sapiens; SW480 colon cancer cells with SP5 promoter luciferase reporter; 24 h after compound addition; half-log dilutions, three micromolar top concentration; normalized to DMSO; read-out: Wnt inhibition
Description: The above synthesized compounds were screened using the assay procedure for Wnt activity described below.
Reporter cell lines were generated by stably transducing cells of cancer cell lines (e.g., colon cancer) with a lentiviral construct that include a wnt-responsive promoter driving expression of the firefly luciferase gene.
Lentiviral constructs were made in which the SP5 promoter, a promoter having eight TCF/LEF binding sites derived from the SP5 promoter, was linked upstream of the firefly luciferase gene. The lentiviral constructs included a hygromycin resistance gene as a selectable marker. The SP5 promoter construct was used to transduce SW480 cells, a colon cancer cell line having a mutated APC gene that generates a truncated APC protein, leading to de-regulated accumulation of β-catenin.
Cultured SW480 cells bearing a reporter construct were distributed at approximately 10,000 cells per well into 384 well multiwell plates. Compounds were then added to the wells in half-log dilutions using a three micromolar top concentration. A series of control wells for each cell type received only buffer and compound solvent. Twenty-four hours after the addition of compound, reporter activity for luciferases was assayed, for example, by addition of the BrightGlo luminescence reagent (Promega) and the Victor3 plate reader (Perkin Elmer). Readings were normalized to DMSO only treated cells, and normalized activities were then used for the IC50 calculations.

Which IC50 does the source give for CC(C)Nc1cncc(-c2ccc3[nH]nc(-c4nc5c(N6CCCCC6)cccc5[nH]4)c3c2)c1 [Compound 156, N-Isopropyl-5-(3-(4-(piperidin-1-yl)-1H-benzo[d]imidazol-2-yl)-1H-indazol-5-yl)pyridin-3-amine] here?
Its IC50 is 66 nM.

With c1cc(N2CCCCC2)c2nc(-c3n[nH]c4ccc(-c5cncc(CN6CCCC6)c5)cc34)[nH]c2c1 [Compound 158, 3-(4-(Piperidin-1-yl)-1H-benzo[d]imidazol-2-yl)-5-(5-(pyrrolidin-1-ylmethyl)pyridin-3-yl)-1H-indazole] as the compound, how does the IC50 read?
Its IC50 is 116 nM.

With CCCCC(=O)Nc1cncc(-c2ccc3[nH]nc(-c4nc5c(N6CCCCC6)cccc5[nH]4)c3c2)c1 [Compound 162, N-(5-(3-(4-(Piperidin-1-yl)-1H-benzo[d]imidazol-2-yl)-1H-indazol-5-yl)pyridin-3-yl)pentanamide] as the compound, how does the IC50 read?
Its IC50 is 140 nM.

Which IC50 does the source give for O=C(Nc1cncc(-c2ccc3[nH]nc(-c4nc5c(N6CCCCC6)cccc5[nH]4)c3c2)c1)C1CCCCC1 [Compound 166, N-(5-(3-(4-(Piperidin-1-yl)-1H-benzo[d]imidazol-2-yl)-1H-indazol-5-yl)pyridin-3-yl)cyclohexanecarboxamide] here?
The IC50 was 445 nM.

With Cc1cn(-c2cccc3[nH]c(-c4n[nH]c5ccc(-c6cnccc6C)cc45)nc23)cn1 [Compound 173] as the compound, how does the IC50 read?
The IC50 was 46 nM.

How did the IC50 turn out when Cc1cn(-c2cccc3[nH]c(-c4n[nH]c5ccc(-c6cncc(NC(=O)c7ccccc7)c6)cc45)nc23)cn1 [Compound 179, N-(5-(3-(4-(4-Methyl-1H-imidazol-1-yl)-1H-benzo[d]imidazol-2-yl)-1H-indazol-5-yl)pyridin-3-yl)benzamide] was run?
The IC50 was 10 nM.

How did the IC50 turn out when Cc1cn(-c2cccc3[nH]c(-c4n[nH]c5ccc(-c6cncc(NC(=O)CC(C)(C)C)c6)cc45)nc23)cn1 [Compound 184, 3,3-Dimethyl-N-(5-(3-(4-(4-methyl-1H-imidazol-1-yl)-1H-benzo[d]imidazol-2-yl)-1H-indazol-5-yl)pyridin-3-yl)butanamide] was run?
Its IC50 is 115 nM.

With CCCCC(=O)Nc1cncc(-c2ccc3[nH]nc(-c4nc5c(-n6cnc(C)c6)cccc5[nH]4)c3c2)c1 [Compound 186, N-(5-(3-(4-(4-Methyl-1H-imidazol-1-yl)-1H-benzo[d]imidazol-2-yl)-1H-indazol-5-yl)pyridin-3-yl)pentanamide] as the compound, how does the IC50 read?
Its IC50 is 6 nM.

How did the IC50 turn out when Cc1cn(-c2cccc3[nH]c(-c4n[nH]c5ccc(-c6cncc(NC(=O)C7CCCC7)c6)cc45)nc23)cn1 [Compound 189, N-(5-(3-(4-(4-Methyl-1H-imidazol-1-yl)-1H-benzo[d]imidazol-2-yl)-1H-indazol-5-yl)pyridin-3-yl)cyclopentanecarboxamide] was run?
The IC50 was 13 nM.

How did the IC50 turn out when Cc1cn(-c2cccc3[nH]c(-c4n[nH]c5ccc(-c6cncc(CNCc7ccccc7)c6)cc45)nc23)cn1 [Compound 191, N-Benzyl-1-(5-(3-(4-(4-methyl-1H-imidazol-1-yl)-1H-benzo[d]imidazol-2-yl)-1H-indazol-5-yl)pyridin-3-yl)methanamine] was run?
The IC50 was 138 nM.

For CN1CCN(c2cccc3[nH]c(-c4n[nH]c5ccc(-c6cccnc6)cc45)nc23)CC1 [Compound 196, 3-(4-(4-Methylpiperazin-1-yl)-1H-benzo[d]imidazol-2-yl)-5-(pyridin-3-yl)-1H-indazole], which IC50 is on record?
Its IC50 is 28 nM.

With Cc1ccncc1-c1ccc2[nH]nc(-c3nc4c(N5CCN(C)CC5)cccc4[nH]3)c2c1 [Compound 197, 3-(4-(4-Methylpiperazin-1-yl)-1H-benzo[d]imidazol-2-yl)-5-(4-methylpyridin-3-yl)-1H-indazole] as the compound, how does the IC50 read?
Its IC50 is 249 nM.

CN1CCN(c2cccc3[nH]c(-c4n[nH]c5ccc(-c6cncc(NC(=O)C(C)(C)C)c6)cc45)nc23)CC1 [Compound 200, N-(5-(3-(4-(4-Methylpiperazin-1-yl)-1H-benzo[d]imidazol-2-yl)-1H-indazol-5-yl)pyridin-3-yl)pivalamide] was tested. Which IC50 did it give?
Its IC50 is 76 nM.

How did the IC50 turn out when CN1CCN(c2cccc3[nH]c(-c4n[nH]c5ccc(-c6cncc(NC(=O)Cc7ccccc7)c6)cc45)nc23)CC1 [Compound 202, N-(5-(3-(4-(4-methylpiperazin-1-yl)-1H-benzo[d]imidazol-2-yl)-1H-indazol-5-yl)pyridin-3-yl)-2-phenylacetamide] was run?
Its IC50 is 248 nM.

How did the IC50 turn out when CCCC(=O)Nc1cncc(-c2ccc3[nH]nc(-c4nc5c(N6CCN(C)CC6)cccc5[nH]4)c3c2)c1 [Compound 209, N-(5-(3-(4-(4-Methylpiperazin-1-yl)-1H-benzo[d]imidazol-2-yl)-1H-indazol-5-yl)pyridin-3-yl)butyramide] was run?
The IC50 was 61 nM.

For CN1CCN(c2cccc3[nH]c(-c4n[nH]c5ccc(-c6cncc(NC(=O)C7CCCC7)c6)cc45)nc23)CC1 [Compound 213, N-(5-(3-(4-(4-Methylpiperazin-1-yl)-1H-benzo[d]imidazol-2-yl)-1H-indazol-5-yl)pyridin-3-yl)cyclopentanecarboxamide], which IC50 is on record?
Its IC50 is 195 nM.

How did the IC50 turn out when CC(C)CC(=O)Nc1cncc(-c2ccc3[nH]nc(-c4nc5ccccc5[nH]4)c3c2)c1 [Compound 218, N-(5-(3-(1H-Benzo[d]imidazol-2-yl)-1H-indazol-5-yl)pyridin-3-yl)-3-methylbutanamide] was run?
The IC50 was 37 nM.

How did the IC50 turn out when c1cncc(-c2ccc3[nH]nc(-c4nc5ccccc5[nH]4)c3c2)c1 [Compound 220] was run?
Its IC50 is 165 nM.

Cc1ccncc1-c1ccc2[nH]nc(-c3nc4ccccc4[nH]3)c2c1 [Compound 221, 3-(1H-Benzo[d]imidazol-2-yl)-5-(4-methylpyridin-3-yl)-1H-indazole] was tested. Which IC50 did it give?
Its IC50 is 317 nM.

Which IC50 does the source give for CCNCc1cncc(-c2ccc3[nH]nc(-c4nc5ccccc5[nH]4)c3c2)c1 [Compound 222] here?
The IC50 was 235 nM.

For CC(C)C(=O)Nc1cncc(-c2ccc3[nH]nc(-c4nc5ccccc5[nH]4)c3c2)c1 [Compound 225, N-(5-(3-(1H-Benzo[d]imidazol-2-yl)-1H-indazol-5-yl)pyridin-3-yl) isobutyramide], which IC50 is on record?
Its IC50 is 28 nM.

O=C(Nc1cncc(-c2ccc3[nH]nc(-c4nc5ccccc5[nH]4)c3c2)c1)c1ccccc1 [Compound 227, N-(5-(3-(1H-Benzo[d]imidazol-2-yl)-1H-indazol-5-yl)pyridin-3-yl) benzamide] was tested. Which IC50 did it give?
The IC50 was 99 nM.

For CC(C)(C)CC(=O)Nc1cncc(-c2ccc3[nH]nc(-c4nc5ccccc5[nH]4)c3c2)c1 [Compound 232, N-(5-(3-(1H-Benzo[d]imidazol-2-yl)-1H-indazol-5-yl)pyridin-3-yl)-3,3-dimethylbutanamide], which IC50 is on record?
The IC50 was 65 nM.

Which IC50 does the source give for CCCCC(=O)Nc1cncc(-c2ccc3[nH]nc(-c4nc5ccccc5[nH]4)c3c2)c1 [Compound 234, N-(5-(3-(1H-Benzo[d]imidazol-2-yl)-1H-indazol-5-yl)pyridin-3-yl) pentanamide] here?
Its IC50 is 123 nM.

How did the IC50 turn out when O=C(Nc1cncc(-c2ccc3[nH]nc(-c4nc5ccccc5[nH]4)c3c2)c1)C1CC1 [Compound 235, N-(5-(3-(1H-Benzo[d]imidazol-2-yl)-1H-indazol-5-yl)pyridin-3-yl) cyclopropanecarboxamide] was run?
The IC50 was 25 nM.

How did the IC50 turn out when O=C(Nc1cncc(-c2ccc3[nH]nc(-c4nc5ccccc5[nH]4)c3c2)c1)C1CCCCC1 [Compound 238, N-(5-(3-(1H-Benzo[d]imidazol-2-yl)-1H-indazol-5-yl)pyridin-3-yl) cyclohexanecarboxamide] was run?
The IC50 was 147 nM.

For c1ccc(CNCc2cncc(-c3ccc4[nH]nc(-c5nc6ccccc6[nH]5)c4c3)c2)cc1 [Compound 239, 1-(5-(3-(1H-Benzo[d]imidazol-2-yl)-1H-indazol-5-yl)pyridin-3-yl)-N-benzylmethanamine], which IC50 is on record?
Its IC50 is 372 nM.

For CCNCc1cncc(-c2ccc3[nH]nc(-c4nc5c(-c6ccsc6)cccc5[nH]4)c3c2)c1 [Compound 246, N-((5-(3-(4-(Thiophen-3-yl)-1H-benzo[d]imidazol-2-yl)-1H-indazol-5-yl)pyridin-3-yl)methyl)ethanamine], which IC50 is on record?
The IC50 was 14 nM.

Which IC50 does the source give for CC(C)C(=O)Nc1cncc(-c2ccc3[nH]nc(-c4nc5c(-c6ccsc6)cccc5[nH]4)c3c2)c1 [Compound 249, N-(5-(3-(4-(Thiophen-3-yl)-1H-benzo[d]imidazol-2-yl)-1H-indazol-5-yl)pyridin-3-yl)isobutyramide] here?
Its IC50 is 13 nM.

For CN(C)Cc1cncc(-c2ccc3[nH]nc(-c4nc5c(-c6ccsc6)cccc5[nH]4)c3c2)c1 [Compound 253, N,N-Dimethyl-1-(5-(3-(4-(thiophen-3-yl)-1H-benzo[d]imidazol-2-yl)-1H-indazol-5-yl)pyridin-3-yl)methanamine], which IC50 is on record?
Its IC50 is 7 nM.

Which IC50 does the source give for c1cc(-c2ccsc2)c2nc(-c3n[nH]c4ccc(-c5cncc(CN6CCCC6)c5)cc34)[nH]c2c1 [Compound 254, 5-(5-(Pyrrolidin-1-ylmethyl)pyridin-3-yl)-3-(4-(thiophen-3-yl)-1H-benzo[d]imidazol-2-yl)-1H-indazole] here?
Its IC50 is 2 nM.

Which IC50 does the source give for Nc1cncc(-c2ccc3[nH]nc(-c4nc5c(-c6ccoc6)cccc5[nH]4)c3c2)c1 [Compound 267, 5-(3-(4-(Furan-3-yl)-1H-benzo[d]imidazol-2-yl)-1H-indazol-5-yl) pyridin-3-amine] here?
Its IC50 is no less than 4150 nM.

How did the IC50 turn out when CC(C)(C)C(=O)Nc1cncc(-c2ccc3[nH]nc(-c4nc5c(-c6ccoc6)cccc5[nH]4)c3c2)c1 [Compound 272, N-(5-(3-(4-(Furan-3-yl)-1H-benzo[d]imidazol-2-yl)-1H-indazol-5-yl)pyridin-3-yl)pivalamide] was run?
The IC50 was 159 nM.

Which IC50 does the source give for CC(C)Nc1cncc(-c2ccc3[nH]nc(-c4nc5c(-c6ccoc6)cccc5[nH]4)c3c2)c1 [Compound 276, 5-(3-(4-(Furan-3-yl)-1H-benzo[d]imidazol-2-yl)-1H-indazol-5-yl)-N-isopropylpyridin-3-amine] here?
Its IC50 is 16 nM.
